Assay results published in ChEMBL document CHEMBL1201862, “PubChem BioAssay data set” (2004).
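Test compounds were applied to cells in 96-well plates for 48 hours at 5 doses. GI50 is the concentration that inhibits growth by half.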 Calls of active or inactive are those of the source. Cut-off read from the data, not from the text of the source: active = GI50 up to about 1.1 µM and inactive = higher.

How the values were obtained:
Test in all cases: growth of human tumour cells (NCI), 48 h
786-0 = test system: 786-0
A549 = test system: A549
CAKI-1 = test system: CAKI-1
EKVX = test system: EKVX
HCC 2998 = test system: HCC 2998
IGROV-1 = test system: IGROV-1
KM12 = test system: KM12
LOX IMVI = test system: LOX IMVI
MDA-N = test system: MDA-N
NCI-H226 = test system: NCI-H226
OVCAR-8 = test system: OVCAR-8
RPMI-8226 = test system: RPMI-8226
SK-MEL-28 = test system: SK-MEL-28
SK-MEL-2 = test system: SK-MEL-2
SN12C = test system: SN12C
T47D = test system: T47D
UACC-257 = test system: UACC-257
OVCAR-3 = test system: OVCAR-3

Measured: GI50

CN(C)C(=S)N1C(=S)N(c2ccccc2)C(=N/c2ccccc2)/C1=N\c1ccccc1
inactive: 786-0 > 100 µM | A549 > 100 µM | CAKI-1 > 100 µM | EKVX > 100 µM | HCC 2998 > 100 µM | IGROV-1 > 100 µM | KM12 > 100 µM | LOX IMVI > 100 µM | MDA-N > 100 µM | NCI-H226 > 100 µM | OVCAR-8 > 100 µM | RPMI-8226 > 100 µM | SK-MEL-28 > 100 µM | SK-MEL-2 > 100 µM | SN12C > 100 µM | T47D > 100 µM | UACC-257 > 100 µM

O=C(CC(C(=O)c1cccs1)c1ccsc1)c1ccc(Cl)cc1 (stereo unspecified)
inactive: 786-0 > 100 µM | A549 > 100 µM | CAKI-1 > 100 µM | EKVX > 100 µM | HCC 2998 > 100 µM | IGROV-1 > 100 µM | KM12 > 100 µM | LOX IMVI > 100 µM | MDA-N > 100 µM | NCI-H226 81.8 µM | OVCAR-8 > 100 µM | RPMI-8226 > 100 µM | SK-MEL-28 > 100 µM | SK-MEL-2 > 100 µM | SN12C > 100 µM | T47D > 100 µM | UACC-257 > 100 µM

CC1=CC(=O)/C(=C(/C)NCCN(CCN/C(C)=C2\C(=O)C=C(C)OC2=O)CCN/C(C)=C2\C(=O)C=C(C)OC2=O)C(=O)O1
inactive: 786-0 > 100 µM | A549 > 100 µM | EKVX > 100 µM | HCC 2998 > 100 µM | IGROV-1 > 100 µM | KM12 > 100 µM | MDA-N > 100 µM | OVCAR-8 > 100 µM | RPMI-8226 > 100 µM | SK-MEL-28 > 100 µM | SN12C > 100 µM | T47D > 100 µM | UACC-257 > 100 µM

Cc1cc(C)cc(NC(=O)CCC(=O)C2CCC/C2=N\NC(=O)C(=O)NN)c1 (stereo unspecified)
inactive: 786-0 > 100 µM | A549 > 100 µM | CAKI-1 > 100 µM | EKVX > 100 µM | HCC 2998 > 100 µM | IGROV-1 > 100 µM | KM12 > 100 µM | LOX IMVI > 100 µM | NCI-H226 > 100 µM | OVCAR-3 > 100 µM | OVCAR-8 > 100 µM | RPMI-8226 > 100 µM | SK-MEL-28 > 100 µM | SK-MEL-2 > 100 µM | SN12C > 100 µM | UACC-257 > 100 µM

C=CCOC(=O)N1c2ccc(O)cc2[C@@]23O[C@@]24[C@@H]1C#C/C=C\C#C[C@]3(O)C(OC)(OC)C[C@@H]4C
inactive: 786-0 22.2 µM | A549 50.5 µM | CAKI-1 53.6 µM | EKVX 53.2 µM | HCC 2998 63.1 µM | IGROV-1 25.8 µM | KM12 24.9 µM | MDA-N 28.8 µM | NCI-H226 24.9 µM | OVCAR-8 32.5 µM | RPMI-8226 34.4 µM | SK-MEL-28 45.1 µM | SK-MEL-2 24.2 µM | SN12C 23.8 µM | T47D > 100 µM | UACC-257 19.1 µM

O=C1NCN(c2ccccc2)C12CCN(CC1COc3ccccc3O1)CC2 (stereo unspecified) [SPIROXATRINE]
inactive: 786-0 31.6 µM | A549 > 100 µM | CAKI-1 39.8 µM | EKVX 43.5 µM | HCC 2998 > 100 µM | IGROV-1 27.5 µM | LOX IMVI > 100 µM | MDA-N > 100 µM | NCI-H226 49.9 µM | OVCAR-3 28.6 µM | OVCAR-8 69.3 µM | RPMI-8226 > 100 µM | SK-MEL-28 > 100 µM | SK-MEL-2 38.4 µM | SN12C > 100 µM | T47D 54 µM | UACC-257 36.6 µM
